What was measured:
DU-145 = experiment: NCI 60 cell line panel screening; format: cell-based; conditions: Homo sapiens, Prostate Cancer, read-out: Growth Inhibition (GI50)
Excerpt: (§1) Compound 3-(2-aminoethyl)-5-(3-cyclohexylpropylidene)thiazolidine-2,4-dione was screened at five concentrations in National Cancer Institute (NCI) 60-cell line panel according to NCI's protocol for growth inhibition.

OVCAR-3 = experiment: NCI 60 cell line panel screening; format: cell-based; conditions: Homo sapiens, Ovarian Cancer, read-out: Growth Inhibition (GI50)
Excerpt: as §1

RPMI-8226 = experiment: NCI 60 cell line panel screening; format: cell-based; conditions: Homo sapiens, Leukemia, read-out: Growth Inhibition (GI50)
Excerpt: as §1

SK-MEL-2 = experiment: NCI 60 cell line panel screening; format: cell-based; conditions: Homo sapiens, Melanoma, read-out: Growth Inhibition (GI50)
Excerpt: as §1

HS 578T = experiment: NCI 60 cell line panel screening; format: cell-based; conditions: Homo sapiens, Breast Cancer, read-out: Growth Inhibition (GI50)
Excerpt: as §1

T-47D = experiment: NCI 60 cell line panel screening; format: cell-based; conditions: Homo sapiens, T47D, Breast Cancer, read-out: Growth Inhibition (GI50)
Excerpt: as §1

HT29 = experiment: NCI 60 cell line panel screening; format: cell-based; conditions: Homo sapiens, HT-29, Colon Cancer, read-out: Growth Inhibition (GI50)
Excerpt: as §1

ACHN = experiment: NCI 60 cell line panel screening; format: cell-based; conditions: Homo sapiens, Renal Cancer, read-out: Growth Inhibition (GI50)
Excerpt: as §1

A498 = experiment: NCI 60 cell line panel screening; format: cell-based; conditions: Homo sapiens, Renal Cancer, read-out: Growth Inhibition (GI50)
Excerpt: as §1

OVCAR-5 = experiment: NCI 60 cell line panel screening; format: cell-based; conditions: Homo sapiens, Ovarian Cancer, read-out: Growth Inhibition (GI50)
Excerpt: as §1

SNB-75 = experiment: NCI 60 cell line panel screening; format: cell-based; conditions: Homo sapiens, CNS Cancer, read-out: Growth Inhibition (GI50)
Excerpt: as §1

HOP-62 = experiment: NCI 60 cell line panel screening; format: cell-based; conditions: Homo sapiens, Non-Small Cell Lung Cancer, read-out: Growth Inhibition (GI50)
Excerpt: as §1

PC-3 = experiment: NCI 60 cell line panel screening; format: cell-based; conditions: Homo sapiens, Prostate Cancer, read-out: Growth Inhibition (GI50)
Excerpt: as §1

COLO 205 = experiment: NCI 60 cell line panel screening; format: cell-based; conditions: Homo sapiens, Colon Cancer, read-out: Growth Inhibition (GI50)
Excerpt: as §1

RXF-393 = experiment: NCI 60 cell line panel screening; format: cell-based; conditions: Homo sapiens, Renal Cancer, read-out: Growth Inhibition (GI50)
Excerpt: as §1

NCI-H226 = experiment: NCI 60 cell line panel screening; format: cell-based; conditions: Homo sapiens, Non-Small Cell Lung Cancer, read-out: Growth Inhibition (GI50)
Excerpt: as §1

SN12C = experiment: NCI 60 cell line panel screening; format: cell-based; conditions: Homo sapiens, Renal Cancer, read-out: Growth Inhibition (GI50)
Excerpt: as §1

HCT-116 = experiment: NCI 60 cell line panel screening; format: cell-based; conditions: Homo sapiens, Colon Cancer, read-out: Growth Inhibition (GI50)
Excerpt: as §1

HL-60(TB) = experiment: NCI 60 cell line panel screening; format: cell-based; conditions: Homo sapiens, Leukemia, read-out: Growth Inhibition (GI50)
Excerpt: as §1

SK-OV-3 = experiment: NCI 60 cell line panel screening; format: cell-based; conditions: Homo sapiens, Ovarian Cancer, read-out: Growth Inhibition (GI50)
Excerpt: as §1

MCF7 = experiment: NCI 60 cell line panel screening; format: cell-based; conditions: Homo sapiens, Breast Cancer, read-out: Growth Inhibition (GI50)
Excerpt: as §1

NCI-H23 = experiment: NCI 60 cell line panel screening; format: cell-based; conditions: Homo sapiens, Non-Small Cell Lung Cancer, read-out: Growth Inhibition (GI50)
Excerpt: as §1

IGROV1 = experiment: NCI 60 cell line panel screening; format: cell-based; conditions: Homo sapiens, IGROV-1, Ovarian Cancer, read-out: Growth Inhibition (GI50)
Excerpt: as §1

KDR = biological target: T1, KDR (Homo sapiens, UniProt P35968); experiment: In vitro kinase screening; format: biochemical; conditions: 10 μM concentration
T1 construct: Caliper Life Sciences
Experimental: (§2) Formula II [3-(2-aminoethyl)-5-(3-cyclohexylpropylidene)thiazolidine-2,4-dione] was screened against a panel of kinases at 10 μM concentration by Caliper Life Sciences according to their established protocol.

PAK2 = biological target: T2, PAK2 (Homo sapiens, UniProt Q13177); experiment: In vitro kinase screening; format: biochemical; conditions: PAK2, 10 μM concentration
T2 construct: Caliper Life Sciences
Experimental: as §2

SYK = biological target: T3, SYK (Homo sapiens, UniProt P43405); experiment: In vitro kinase screening; format: biochemical; conditions: 10 μM concentration
T3 construct: purchased Caliper Life Sciences
Experimental: as §2

Erk1 = biological target: T4, Erk1 (Homo sapiens, UniProt P27361); experiment: In vitro kinase screening; format: biochemical; conditions: Erk1, 10 μM concentration
T4 construct: Caliper Life Sciences (screening service)
Experimental: as §2

CAMK2 = experiment: In vitro kinase screening; format: biochemical; conditions: CAMK2, 10 μM concentration
Experimental: as §2

FYN = biological target: T5, FYN (Homo sapiens, UniProt P06241); experiment: In vitro kinase screening; format: biochemical; conditions: 10 μM concentration
T5 construct: Caliper Life Sciences (screening service)
Experimental: as §2

LYN = biological target: T6, LYN (Homo sapiens, UniProt P07948); experiment: In vitro kinase screening; format: biochemical; conditions: 10 μM concentration
T6 construct: Caliper Life Sciences
Experimental: as §2

LCK = biological target: T7, LCK (Homo sapiens, UniProt P06239); experiment: In vitro kinase screening; format: biochemical; conditions: 10 μM concentration
T7 construct: Caliper Life Sciences
Experimental: as §2

Ck1d = biological target: T8, Ck1d (Homo sapiens, UniProt P48730); experiment: In vitro kinase screening; format: biochemical; conditions: 10 μM concentration
T8 construct: Caliper Life Sciences (screening service)
Experimental: as §2

BTK = biological target: T9, BTK (Homo sapiens, UniProt Q06187); experiment: In vitro kinase screening; format: biochemical; conditions: 10 μM concentration
T9 construct: Caliper Life Sciences (screening service)
Experimental: as §2

AKT1 = biological target: T10, AKT1 (Homo sapiens, UniProt P31749); experiment: In vitro kinase screening; format: biochemical; conditions: AKT1, 10 μM concentration
T10 construct: Caliper Life Sciences (screening service)
Experimental: as §2

IRAK4 = biological target: T11, IRAK4 (Homo sapiens, UniProt Q9NWZ3); experiment: In vitro kinase screening; format: biochemical; conditions: IRAK4, 10 μM concentration
T11 construct: Caliper Life Sciences (screening service)
Experimental: as §2

PKCb2 = biological target: T12, PKCb2 (Homo sapiens, UniProt P05771); experiment: In vitro kinase screening; format: biochemical; conditions: PKCb2, 10 μM concentration
T12 construct: Caliper Life Sciences
Experimental: as §2

PI3Ka = biological target: T13, PI3Ka (Homo sapiens, UniProt P42336); experiment: In vitro kinase screening; format: biochemical; conditions: 10 μM concentration
T13 construct: Caliper Life Sciences
Experimental: as §2

c-Raf = biological target: T14, c-Raf (Homo sapiens, UniProt P04049); experiment: In vitro kinase screening; format: biochemical; conditions: 10 μM concentration
T14 construct: Caliper Life Sciences (screening service)
Experimental: as §2

RSK1 = biological target: T15, RSK1 (Homo sapiens, UniProt Q15418); experiment: In vitro kinase screening; format: biochemical; conditions: RSK1, 10 μM concentration
T15 construct: Caliper Life Sciences
Experimental: as §2

T13 sequence (P42336 whole entry): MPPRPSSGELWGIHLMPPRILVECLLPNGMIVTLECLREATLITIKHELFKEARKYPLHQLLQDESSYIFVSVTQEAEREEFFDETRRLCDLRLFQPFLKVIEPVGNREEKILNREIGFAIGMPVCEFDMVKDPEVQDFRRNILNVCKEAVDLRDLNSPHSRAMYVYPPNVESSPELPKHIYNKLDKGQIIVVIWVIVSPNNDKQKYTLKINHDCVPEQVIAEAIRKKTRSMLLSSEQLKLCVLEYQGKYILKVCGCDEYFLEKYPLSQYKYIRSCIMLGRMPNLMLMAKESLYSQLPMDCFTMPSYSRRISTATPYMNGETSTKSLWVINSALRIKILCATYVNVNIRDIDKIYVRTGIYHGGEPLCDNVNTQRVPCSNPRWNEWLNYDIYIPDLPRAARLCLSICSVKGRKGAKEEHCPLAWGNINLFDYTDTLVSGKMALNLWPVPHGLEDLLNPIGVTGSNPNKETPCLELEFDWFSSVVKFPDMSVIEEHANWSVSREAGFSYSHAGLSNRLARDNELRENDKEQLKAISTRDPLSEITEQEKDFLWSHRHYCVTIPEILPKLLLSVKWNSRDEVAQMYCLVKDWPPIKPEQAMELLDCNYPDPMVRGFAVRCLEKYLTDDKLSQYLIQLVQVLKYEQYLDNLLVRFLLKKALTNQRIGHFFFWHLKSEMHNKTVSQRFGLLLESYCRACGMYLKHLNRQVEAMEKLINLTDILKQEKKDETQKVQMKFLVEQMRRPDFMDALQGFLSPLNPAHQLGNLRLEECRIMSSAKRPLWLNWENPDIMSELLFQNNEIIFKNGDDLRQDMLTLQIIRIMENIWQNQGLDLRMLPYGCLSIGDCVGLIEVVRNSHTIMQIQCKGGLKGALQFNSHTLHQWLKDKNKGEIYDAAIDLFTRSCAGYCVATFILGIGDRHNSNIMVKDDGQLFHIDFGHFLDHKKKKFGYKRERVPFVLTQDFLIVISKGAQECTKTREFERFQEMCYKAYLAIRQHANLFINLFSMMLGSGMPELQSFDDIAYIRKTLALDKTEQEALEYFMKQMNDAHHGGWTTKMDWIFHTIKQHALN
T13 sequence (P27986 whole entry partner): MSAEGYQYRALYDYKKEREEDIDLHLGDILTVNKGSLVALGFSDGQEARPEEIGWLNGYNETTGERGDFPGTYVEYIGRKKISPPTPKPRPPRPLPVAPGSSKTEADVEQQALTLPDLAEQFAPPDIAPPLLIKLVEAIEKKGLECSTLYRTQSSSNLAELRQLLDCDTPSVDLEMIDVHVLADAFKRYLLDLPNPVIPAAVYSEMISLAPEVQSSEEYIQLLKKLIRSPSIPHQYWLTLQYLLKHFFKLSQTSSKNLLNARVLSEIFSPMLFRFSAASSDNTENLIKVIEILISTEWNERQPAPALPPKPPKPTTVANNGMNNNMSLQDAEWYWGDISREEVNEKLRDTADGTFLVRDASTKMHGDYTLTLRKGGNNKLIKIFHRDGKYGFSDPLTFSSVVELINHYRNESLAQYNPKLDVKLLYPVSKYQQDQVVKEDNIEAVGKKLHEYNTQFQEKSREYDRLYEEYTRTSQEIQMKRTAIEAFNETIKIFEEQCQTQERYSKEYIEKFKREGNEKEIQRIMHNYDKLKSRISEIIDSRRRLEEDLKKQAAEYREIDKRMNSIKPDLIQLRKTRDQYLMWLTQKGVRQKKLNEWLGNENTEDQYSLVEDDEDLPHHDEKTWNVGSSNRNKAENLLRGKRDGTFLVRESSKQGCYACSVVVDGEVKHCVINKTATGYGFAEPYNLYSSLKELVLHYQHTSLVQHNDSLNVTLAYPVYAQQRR
T10 sequence (P31749 whole entry): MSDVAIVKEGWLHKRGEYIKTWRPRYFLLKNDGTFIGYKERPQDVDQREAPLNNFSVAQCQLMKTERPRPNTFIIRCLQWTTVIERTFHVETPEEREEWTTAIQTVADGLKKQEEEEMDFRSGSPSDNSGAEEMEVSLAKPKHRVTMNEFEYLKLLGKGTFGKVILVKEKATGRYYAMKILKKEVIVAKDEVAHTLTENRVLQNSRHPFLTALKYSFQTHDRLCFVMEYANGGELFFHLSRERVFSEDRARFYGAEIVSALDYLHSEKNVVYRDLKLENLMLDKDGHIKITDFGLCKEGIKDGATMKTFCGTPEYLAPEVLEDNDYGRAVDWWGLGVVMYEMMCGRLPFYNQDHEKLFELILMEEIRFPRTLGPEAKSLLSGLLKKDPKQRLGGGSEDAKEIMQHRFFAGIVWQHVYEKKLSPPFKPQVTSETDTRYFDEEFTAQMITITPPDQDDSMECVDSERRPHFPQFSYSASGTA
T8 sequence (P48730 whole entry): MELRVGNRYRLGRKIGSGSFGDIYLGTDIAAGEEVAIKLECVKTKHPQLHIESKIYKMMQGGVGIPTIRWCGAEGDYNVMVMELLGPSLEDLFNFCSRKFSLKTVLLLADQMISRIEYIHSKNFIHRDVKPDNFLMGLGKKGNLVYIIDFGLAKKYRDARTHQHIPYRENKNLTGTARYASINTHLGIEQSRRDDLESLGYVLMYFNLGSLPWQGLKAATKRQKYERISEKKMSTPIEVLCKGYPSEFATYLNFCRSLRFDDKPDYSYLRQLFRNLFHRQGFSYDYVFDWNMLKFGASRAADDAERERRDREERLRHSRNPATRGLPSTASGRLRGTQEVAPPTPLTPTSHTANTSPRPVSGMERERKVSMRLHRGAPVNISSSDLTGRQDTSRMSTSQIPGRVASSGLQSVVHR
T15 sequence (Q15418 whole entry, species assumed): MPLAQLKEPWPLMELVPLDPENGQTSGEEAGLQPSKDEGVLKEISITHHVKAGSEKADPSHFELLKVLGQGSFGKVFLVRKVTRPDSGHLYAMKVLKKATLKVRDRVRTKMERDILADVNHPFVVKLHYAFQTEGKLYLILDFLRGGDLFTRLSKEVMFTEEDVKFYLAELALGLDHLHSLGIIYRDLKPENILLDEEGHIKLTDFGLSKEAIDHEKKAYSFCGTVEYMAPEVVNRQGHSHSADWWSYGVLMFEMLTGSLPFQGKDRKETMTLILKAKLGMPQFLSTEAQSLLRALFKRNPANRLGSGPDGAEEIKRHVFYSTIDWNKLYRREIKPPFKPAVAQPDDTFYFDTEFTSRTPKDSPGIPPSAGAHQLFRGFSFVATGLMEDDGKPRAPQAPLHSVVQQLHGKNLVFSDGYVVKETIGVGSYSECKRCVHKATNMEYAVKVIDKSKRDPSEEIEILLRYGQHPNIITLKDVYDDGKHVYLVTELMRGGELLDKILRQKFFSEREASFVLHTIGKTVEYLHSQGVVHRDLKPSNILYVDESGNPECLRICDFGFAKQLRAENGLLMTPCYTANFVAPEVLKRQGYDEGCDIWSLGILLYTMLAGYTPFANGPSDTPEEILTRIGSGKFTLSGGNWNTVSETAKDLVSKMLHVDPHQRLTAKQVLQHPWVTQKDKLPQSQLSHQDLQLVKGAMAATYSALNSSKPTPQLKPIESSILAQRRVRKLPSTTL
T9 sequence (Q06187 whole entry): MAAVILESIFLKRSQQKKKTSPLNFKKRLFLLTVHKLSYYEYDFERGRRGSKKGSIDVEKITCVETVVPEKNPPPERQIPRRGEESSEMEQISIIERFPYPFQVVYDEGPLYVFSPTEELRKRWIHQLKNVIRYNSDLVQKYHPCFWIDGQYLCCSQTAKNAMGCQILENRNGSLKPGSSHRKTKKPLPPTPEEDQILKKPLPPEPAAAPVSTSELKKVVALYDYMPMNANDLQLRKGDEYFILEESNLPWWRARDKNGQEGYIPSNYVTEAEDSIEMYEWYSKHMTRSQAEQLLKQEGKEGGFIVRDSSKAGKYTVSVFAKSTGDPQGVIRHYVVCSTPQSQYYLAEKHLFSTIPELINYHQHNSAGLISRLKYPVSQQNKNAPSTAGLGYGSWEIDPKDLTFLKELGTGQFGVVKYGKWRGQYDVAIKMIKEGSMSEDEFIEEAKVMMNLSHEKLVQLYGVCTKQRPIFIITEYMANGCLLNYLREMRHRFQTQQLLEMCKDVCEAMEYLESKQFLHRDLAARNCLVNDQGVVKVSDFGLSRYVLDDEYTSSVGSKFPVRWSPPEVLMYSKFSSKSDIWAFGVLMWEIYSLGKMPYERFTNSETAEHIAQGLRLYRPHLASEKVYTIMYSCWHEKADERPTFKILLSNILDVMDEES
T12 sequence (P05771 1-673 isoform P05771-2): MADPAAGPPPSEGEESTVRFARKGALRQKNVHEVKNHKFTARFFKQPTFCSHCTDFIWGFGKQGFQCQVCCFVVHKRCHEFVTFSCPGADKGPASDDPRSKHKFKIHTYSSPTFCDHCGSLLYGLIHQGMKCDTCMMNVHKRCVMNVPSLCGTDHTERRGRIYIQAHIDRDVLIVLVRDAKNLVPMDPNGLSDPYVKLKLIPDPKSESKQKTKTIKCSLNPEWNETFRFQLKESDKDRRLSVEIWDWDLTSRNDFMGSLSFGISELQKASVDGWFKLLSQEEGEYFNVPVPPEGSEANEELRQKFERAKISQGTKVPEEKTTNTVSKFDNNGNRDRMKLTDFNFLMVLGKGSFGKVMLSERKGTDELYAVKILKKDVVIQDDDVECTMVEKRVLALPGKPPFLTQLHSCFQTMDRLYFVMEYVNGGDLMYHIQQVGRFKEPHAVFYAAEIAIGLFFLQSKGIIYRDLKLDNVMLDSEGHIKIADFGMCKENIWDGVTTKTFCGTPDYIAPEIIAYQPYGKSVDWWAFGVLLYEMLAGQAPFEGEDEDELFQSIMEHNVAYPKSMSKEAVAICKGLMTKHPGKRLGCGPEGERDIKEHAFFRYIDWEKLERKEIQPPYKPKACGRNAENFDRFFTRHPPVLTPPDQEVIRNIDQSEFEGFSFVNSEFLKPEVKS

Question: `NCCN1C(=O)S/C(=C\CCC2CCCCC2)C1=O` [Example 4, 3-(2-aminoethyl)-5-(3-cyclohexylpropylidene)thiazolidine-2,4-dione] was tested. Which GI50 (DU-145) did it give?
Answer: 1760 nM

Question: And the GI50 (OVCAR-3)?
Answer: 1890 nM

Question: What about the GI50 (RPMI-8226) of the same molecule?
Answer: 2510 nM

Question: And the GI50 (SK-MEL-2)?
Answer: 1900 nM

Question: What about the GI50 (HS 578T) of the same molecule?
Answer: 2490 nM

Question: And the GI50 (T-47D)?
Answer: 2040 nM

Question: What about the GI50 (HT29) of the same molecule?
Answer: 2040 nM

Question: What about the GI50 (ACHN) of the same molecule?
Answer: 1840 nM

Question: And the GI50 (A498)?
Answer: 1570 nM

Question: And the GI50 (OVCAR-5)?
Answer: 1980 nM

Question: And the GI50 (SNB-75)?
Answer: 4.56 µM

Question: And the GI50 (HOP-62)?
Answer: 3.25 µM

Question: What about the GI50 (PC-3) of the same molecule?
Answer: 1910 nM

Question: And the GI50 (COLO 205)?
Answer: 2190 nM

Question: What about the GI50 (RXF-393) of the same molecule?
Answer: 2560 nM

Question: And the GI50 (NCI-H226)?
Answer: 9.98 µM

Question: And the GI50 (SN12C)?
Answer: 2150 nM

Question: And the GI50 (HCT-116)?
Answer: 1670 nM

Question: And the GI50 (HL-60(TB))?
Answer: 2040 nM

Question: And the GI50 (SK-OV-3)?
Answer: 4.04 µM

Question: What about the GI50 (MCF7) of the same molecule?
Answer: 3.13 µM

Question: And the GI50 (NCI-H23)?
Answer: 3.08 µM

Question: And the GI50 (IGROV1)?
Answer: 1960 nM

Question: And the inhibition at 10 µM (KDR)?
Answer: -28%

Question: What about the inhibition at 10 µM (PAK2) of the same molecule?
Answer: 10%

Question: And the inhibition at 10 µM (SYK)?
Answer: 9%

Question: And the inhibition at 10 µM (Erk1)?
Answer: 21%

Question: And the “% Inhibition” value (CAMK2)?
Answer: 60%

Question: And the inhibition at 10 µM (FYN)?
Answer: 0%

Question: And the inhibition at 10 µM (LYN)?
Answer: 0%

Question: What about the inhibition at 10 µM (LCK) of the same molecule?
Answer: 4%

Question: And the inhibition at 10 µM (Ck1d)?
Answer: -5%

Question: What about the inhibition at 10 µM (BTK) of the same molecule?
Answer: 12%

Question: What about the inhibition at 10 µM (AKT1) of the same molecule?
Answer: 3%

Question: What about the inhibition at 10 µM (IRAK4) of the same molecule?
Answer: -1%

Question: And the inhibition at 10 µM (PKCb2)?
Answer: 16%

Question: What about the inhibition at 10 µM (PI3Ka) of the same molecule?
Answer: 45%

Question: And the inhibition at 10 µM (c-Raf)?
Answer: -1%

Question: What about the inhibition at 10 µM (RSK1) of the same molecule?
Answer: 2%
